In US5654274A, “Biologically active peptides having N-terminal substitutions” (priority 1995, dated 1997):
Square brackets hold non-standard residues; d marks the D form. Ends that are not written are not given here. Peptide text beside a SMILES is read from it. * marks the point of attachment. hArg = N=C(N)NCCCC[C@H](N)C(=O)O; Octanoyl = CCCCCCCC(=O)*

Target: not listed separately
Test: Inhibition of lipopolysaccharide binding to dye (LPS50)
Parameters: species or system E. coli
Settings: concentration of peptide necessary to inhibit the binding of 50% of the lipopolysaccharide to the dye; absorbance at 460 nm and 510 nm
Protocol: A stock solution (10×) of 0.6 mM dye is prepared by adding 1.68 mg of (1-ethyl-2-(3-[1-ethylnaphthol(1,2-d)- thiazolin-2-ylidene]-2-methylpropenyl)naphtho-(1,2-d)-thiazolium bromide (Signa E-7762) to 5 ml of 200 proof ethanol. 1 ml of this solution was added to 9 ml ethanol to give 0.06 mM of dye (60 μM dye).
A stock solution of lipopolysaccharide (LPS) from E. coli serotype 0111:B4 was prepared at 1.5 mg/ml. 400 μl of this solution was mixed with 4.6 ml pyrogen free water to give a 120 μg/ml solution.
Row 1 and rows 3 through 12 of a microtiter plate were filled with 100 μl of pyrogen free water or with 10 mg/ml of bovine serum albumin. 200 μl of peptide then is added to row 2 of the microtiter plate at a concentration of […]. 200 μl of pyrogen free water is added to each of the control wells in two lanes (having dye and LPS but no peptide or having dye and no LPS and no peptide). 100 μl then is serially diluted from row 2 through row 12 of the microtiter plate. 50 μl of PBS (pH 7.4) and 50 μl of the LPS solution then are added to row 1 of the plate (blank wells).
Equal volumes of the LPS solution, the dye, and PBS (pH 7.4, approx. 150 mM) are mixed to form a dye-buffer--LPS mixture having LPS at a final concentration of 40 μg/mi and dye at a final concentration of 20 μM. The dye-buffer LPS mixture then is incubated for 10 minutes at room temperature in the dark.
The plate is incubated for 10 minutes at room temperature in the dark, and the absorbance at 460 nm and 510 nm is read. From these absorbances, the LPS50 value, which is the concentration in mg/ml of peptide necessary to inhibit the binding of 50% of the lipopolysaccharide to the dye, is calculated.

Going from `CCCCCCCC(=O)N[C@@H](CC(C)C)C(=O)N[C@@H](CCCCN)C(=O)N[C@@H](CCCCN)C(=O)N[C@@H](CC(C)C)C(=O)N[C@@H](CCCCN)C(=O)N[C@@H](CCCCN)C(=O)N[C@@H](CC(C)C)C(N)=O` [Oct-(SEQ ID NO: 106)-NH2] (Octanoyl-LKKLKKL-NH2) to `CCCCCCCC(=O)N[C@@H](CC(C)C)C(=O)N[C@@H](CC(C)C)C(=O)N[C@@H](CCCCN)C(=O)N[C@@H](CCCCN)C(=O)N[C@@H](CC(C)C)C(=O)N[C@@H](CCCCN)C(=O)N[C@@H](CCCCN)C(=O)N[C@@H](CC(C)C)C(N)=O` [Oct-(SEQ ID NO: 107)-NH2] (Octanoyl-LLKKLKKL-NH2), the LPS50 rises from 6.80 µg/mL to 15.00 µg/mL (2.2-fold).

`CCCCCCCC(=O)N[C@@H](CCCCN)C(=O)N[C@@H](CCCCN)C(=O)N[C@@H](CC(C)C)C(=O)N[C@@H](CC(C)C)C(=O)N[C@@H](CCCCN)C(=O)N[C@@H](CCCCN)C(=O)N[C@@H](CC(C)C)C(=O)N[C@@H](CCCCN)C(=O)N[C@@H](CCCCN)C(=O)N[C@@H](CC(C)C)C(N)=O` [Oct-(SEQ ID NO: 109)-NH2] (Octanoyl-KKLLKKLKKL-NH2) and `CCCCCCCC(=O)N[C@@H](CC(C)C)C(=O)N[C@@H](CCCCN)C(=O)N[C@@H](CCCCN)C(=O)N[C@@H](CC(C)C)C(=O)N[C@@H](CC(C)C)C(=O)N[C@@H](CCCCN)C(=O)N[C@@H](CCCCN)C(=O)N[C@@H](CC(C)C)C(=O)N[C@@H](CCCCN)C(=O)N[C@@H](CCCCN)C(=O)N[C@@H](CC(C)C)C(N)=O` [Oct-(SEQ ID NO: 110)-NH2] (Octanoyl-LKKLLKKLKKL-NH2) are within 1.5-fold of each other in LPS50: 0.60 µg/mL for the first, 0.84 µg/mL for the second.

Going from `CCCCCCCC(=O)N[C@@H](C)C(=O)N[C@@H](CCCCN)C(=O)N[C@@H](CCCCN)C(=O)N[C@@H](CC(C)C)C(=O)N[C@@H](CC(C)C)C(=O)N[C@@H](CCCCN)C(=O)N[C@@H](CCCCN)C(=O)N[C@@H](CC(C)C)C(=O)N[C@@H](CCCCN)C(=O)N[C@@H](CCCCN)C(=O)N[C@@H](CC(C)C)C(N)=O` [Oct-(SEQ ID NO: 111)-NH2] (Octanoyl-AKKLLKKLKKL-NH2) to `CCCCCCCC(=O)N[C@@H](CCCCN)C(=O)N[C@@H](Cc1ccccc1)C(=O)N[C@@H](C)C(=O)N[C@@H](CCCCN)C(=O)N[C@@H](Cc1ccccc1)C(=O)N[C@@H](C)C(=O)N[C@@H](CCCCN)C(=O)N[C@@H](CCCCN)C(=O)N[C@@H](Cc1ccccc1)C(=O)N[C@@H](C)C(N)=O` [Oct-(SEQ ID NO: 121)-NH2] (Octanoyl-KFAKFAKKFA-NH2), the LPS50 rises from 1.00 µg/mL to 20.00 µg/mL (20-fold).

Going from `CCCCCCCC(=O)N[C@@H](CCCCN)C(=O)N[C@@H](CCCCN)C(=O)N[C@@H](CC(C)C)C(=O)N[C@@H](C)C(=O)N[C@@H](CCCCN)C(=O)N[C@@H](CC(C)C)C(=O)N[C@@H](C)C(=O)N[C@@H](CCCCN)C(=O)N[C@@H](CCCCN)C(=O)N[C@@H](CC(C)C)C(=O)N[C@@H](C)C(N)=O` [Oct-(SEQ ID NO: 123)-NH2] (Octanoyl-KKLAKLAKKLA-NH2) to `CCCCCCCC(=O)N[C@@H](CC(C)C)C(=O)N[C@@H](CCCCN)C(=O)N[C@@H](CCCCN)C(=O)N[C@@H](CC(C)C)C(=O)N[C@@H](CC(C)C)C(=O)N[C@@H](CCCCN)C(=O)N[C@@H](CCCCN)C(N)=O` [Oct-(SEQ ID NO: 137)-NH2] (Octanoyl-LKKLLKK-NH2), the LPS50 rises from 1.70 µg/mL to 4.80 µg/mL (2.8-fold).

`CCCCCCCC(=O)N[C@@H](CC(C)C)C(=O)N[C@@H](CCCCN)C(=O)N[C@@H](CCCCN)C(=O)N[C@@H](CC(C)C)C(=O)N[C@@H](CC(C)C)C(=O)N[C@@H](CCCCN)C(=O)N[C@@H](CC(C)C)C(=O)N[C@@H](CC(C)C)C(=O)N[C@@H](CCCCN)C(N)=O` [Oct-(SEQ ID NO: 138)-NH2] (Octanoyl-LKKLLKLLK-NH2) and `CCCCCCCC(=O)N[C@H](CC(C)C)C(=O)N[C@H](CCCCN)C(=O)N[C@H](CCCCN)C(=O)N[C@H](CC(C)C)C(=O)N[C@H](CC(C)C)C(=O)N[C@H](CCCCN)C(=O)N[C@H](CCCCN)C(=O)N[C@H](CC(C)C)C(=O)N[C@H](CCCCN)C(=O)N[C@H](CCCCN)C(=O)N[C@H](CC(C)C)C(N)=O` [Oct-D-(SEQ ID NO: 110)-NH2] (Octanoyl-[dL][dK][dK][dL][dL][dK][dK][dL][dK][dK][dL]-NH2) are within 1.5-fold of each other in LPS50: 1.00 µg/mL for the first, 0.97 µg/mL for the second.

Compound “Oct-D-(SEQ ID NO:110)-NH2 -melibionic acid: Oct-D-(SEQ ID NO:110)-NH2 with melibionic acid, not further explained (Octanoyl-LKKLLKKLKKL-NH2; not fully specified (some residues); also: melibionic acid, not further explained)” has an LPS50 of 45.00 µg/mL.

Test system: P. gingivalis
Test: Anaerobic antimicrobial susceptibility test (NCCLS M11-T2), P. gingivalis
Type: cell-based
Settings: strain W50, BHI broth, 24-48 hours

Compared with `CC[C@H](C)[C@H](NC(=O)[C@H](CCCCNC(=N)N)NC(=O)CNC(=O)[C@H](C)NC(=O)[C@@H](NC(=O)[C@H](CCCCNC(=N)N)NC(=O)[C@H](C)NC(=O)[C@@H](NC(=O)[C@H](CCCCNC(=N)N)NC(=O)CNC(=O)[C@H](C)NC(=O)[C@@H](NC(=O)[C@H](CCCCNC(=N)N)NC(=O)[C@H](C)NC(=O)[C@@H](NC(=O)[C@H](CCCCNC(=N)N)NC(=O)CNC(=O)[C@H](C)NC(=O)[C@@H](NC(=O)[C@@H](N)CCCCNC(=N)N)[C@@H](C)CC)[C@@H](C)CC)[C@@H](C)CC)[C@@H](C)CC)[C@@H](C)CC)C(=O)N[C@@H](C)C(N)=O` [(SEQ ID NO: 66)-NH2] (H-[hArg]IAG[hArg]IA[hArg]IAG[hArg]IA[hArg]IAG[hArg]IA-NH2), `CCCCCCCC(=O)N[C@@H](CCCCN)C(=O)N[C@H](C(=O)N[C@@H](C)C(=O)NCC(=O)N[C@@H](CCCCN)C(=O)N[C@H](C(=O)N[C@@H](C)C(=O)N[C@@H](CCCCN)C(=O)N[C@H](C(=O)N[C@@H](C)C(=O)NCC(=O)N[C@@H](CCCCN)C(=O)N[C@H](C(=O)N[C@@H](C)C(=O)N[C@@H](CCCCN)C(=O)N[C@H](C(=O)N[C@@H](C)C(=O)NCC(=O)N[C@@H](CCCCN)C(=O)N[C@H](C(=O)N[C@@H](C)C(N)=O)[C@@H](C)CC)[C@@H](C)CC)[C@@H](C)CC)[C@@H](C)CC)[C@@H](C)CC)[C@@H](C)CC` [Oct-(SEQ ID NO: 27)-NH2] (Octanoyl-KIAGKIAKIAGKIAKIAGKIA-NH2) is higher in “MIC P. gingivalis (strain) W50” value: 4 μl/ml for the first, 16 μl/ml for the second.

First: CCCCCCCC(=O)N[C@@H](CCCCN)C(=O)N[C@H](C(=O)N[C@@H](C)C(=O)NCC(=O)N[C@@H](CCCCN)C(=O)N[C@H](C(=O)N[C@@H](C)C(=O)N[C@@H](CCCCN)C(=O)N[C@H](C(=O)N[C@@H](C)C(=O)NCC(=O)N[C@@H](CCCCN)C(=O)N[C@H](C(=O)N[C@@H](C)C(=O)N[C@@H](CCCCN)C(=O)N[C@H](C(=O)N[C@@H](C)C(=O)NCC(=O)N[C@@H](CCCCN)C(=O)N[C@H](C(=O)N[C@@H](C)C(=O)O)[C@@H](C)CC)[C@@H](C)CC)[C@@H](C)CC)[C@@H](C)CC)[C@@H](C)CC)[C@@H](C)CC [Oct-(SEQ ID NO: 27)-OH] (Octanoyl-KIAGKIAKIAGKIAKIAGKIA-OH)
Second: CCCCCCCC(=O)N[C@@H](CCCCNC(=N)N)C(=O)N[C@H](C(=O)N[C@@H](C)C(=O)NCC(=O)N[C@@H](CCCCNC(=N)N)C(=O)N[C@H](C(=O)N[C@@H](C)C(=O)N[C@@H](CCCCNC(=N)N)C(=O)N[C@H](C(=O)N[C@@H](C)C(=O)NCC(=O)N[C@@H](CCCCNC(=N)N)C(=O)N[C@H](C(=O)N[C@@H](C)C(=O)N[C@@H](CCCCNC(=N)N)C(=O)N[C@H](C(=O)N[C@@H](C)C(=O)NCC(=O)N[C@@H](CCCCNC(=N)N)C(=O)N[C@H](C(=O)N[C@@H](C)C(N)=O)[C@@H](C)CC)[C@@H](C)CC)[C@@H](C)CC)[C@@H](C)CC)[C@@H](C)CC)[C@@H](C)CC [Oct-(SEQ ID NO: 66)-NH2] (Octanoyl-[hArg]IAG[hArg]IA[hArg]IAG[hArg]IA[hArg]IAG[hArg]IA-NH2)
The “MIC P. gingivalis (strain) W50” value of the first is lower: 1 μl/ml for the first, 2 μl/ml for the second.

First: CCCCCCCC(=O)N[C@@H](CCCCN)C(=O)N[C@H](C(=O)N[C@@H](C)C(=O)N[C@@H](CCCCN)C(=O)N[C@@H](CCCCN)C(=O)N[C@H](C(=O)N[C@@H](C)C(=O)N[C@@H](CCCCN)C(=O)N[C@H](C(=O)N[C@@H](C)C(=O)N[C@@H](CCCCN)C(=O)N[C@@H](CCCCN)C(=O)N[C@H](C(=O)N[C@@H](C)C(=O)N[C@@H](CCCCN)C(=O)N[C@H](C(=O)N[C@@H](C)C(=O)N[C@@H](CCCCN)C(=O)N[C@@H](CCCCN)C(=O)N[C@H](C(=O)N[C@@H](C)C(=O)O)[C@@H](C)CC)[C@@H](C)CC)[C@@H](C)CC)[C@@H](C)CC)[C@@H](C)CC)[C@@H](C)CC [Oct-(SEQ ID NO: 86)-OH] (Octanoyl-KIAKKIAKIAKKIAKIAKKIA-OH)
Second: KIAGKIAKIAGKIAKIAGKIA-NH2 [(SEQ ID NO: 27)-NH2]
The “MIC P. gingivalis (strain) W50” value of the first is lower: 1 μl/ml for the first, 4 μl/ml for the second.
